Data as given in PubChem BioAssay (NCI).
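Interpolation was linear, between the two tested concentrations surrounding the appropriate level; five concentrations were tested over 48 hours in 96-well plates. TGI: total growth inhibition.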

Tests used:
Assay in all cases: NCI tumour cell line growth inhibition, 48 h
LOX IMVI melanoma = tested on: LOX IMVI melanoma
CCRF-CEM leukemia = tested on: CCRF-CEM leukemia
NCI-H460 lung = tested on: NCI-H460 lung
DMS 273 small cell lung = tested on: DMS 273 small cell lung
M19-MEL melanoma = tested on: M19-MEL melanoma
SN12C renal = tested on: SN12C renal
U251 CNS = tested on: U251 CNS
HOP-92 NSCLC = tested on: HOP-92 NSCLC
DMS 114 small cell lung = tested on: DMS 114 small cell lung
K-562 leukemia = tested on: K-562 leukemia
UO-31 renal = tested on: UO-31 renal
NCI-H23 lung = tested on: NCI-H23 lung
HCT-15 colon = tested on: HCT-15 colon
SNB-19 CNS = tested on: SNB-19 CNS
SK-OV-3 ovarian = tested on: SK-OV-3 ovarian
SF-539 CNS = tested on: SF-539 CNS
HOP-18 NSCLC = tested on: HOP-18 NSCLC
UACC-257 melanoma = tested on: UACC-257 melanoma
SNB-78 CNS = tested on: SNB-78 CNS
A498 renal = tested on: A498 renal
NCI/ADR-RES ovarian = tested on: NCI/ADR-RES ovarian
KM20L2 colon = tested on: KM20L2 colon
IGROV1 ovarian = tested on: IGROV1 ovarian
MOLT-4 leukemia = tested on: MOLT-4 leukemia
A549 NSCLC = tested on: A549 NSCLC
SNB-75 CNS = tested on: SNB-75 CNS
HCC-2998 colon = tested on: HCC-2998 colon
HL-60(TB) leukemia = tested on: HL-60(TB) leukemia
DLD-1 colon = tested on: DLD-1 colon
SF-268 CNS = tested on: SF-268 CNS
OVCAR-4 ovarian = tested on: OVCAR-4 ovarian
OVCAR-3 ovarian = tested on: OVCAR-3 ovarian
SK-MEL-28 melanoma = tested on: SK-MEL-28 melanoma
NCI-H226 lung = tested on: NCI-H226 lung
EKVX NSCLC = tested on: EKVX NSCLC
HT29 colon = tested on: HT29 colon
KM12 colon = tested on: KM12 colon
MCF7 breast = tested on: MCF7 breast
RPMI-8226 leukemia = tested on: RPMI-8226 leukemia
CAKI-1 renal = tested on: CAKI-1 renal
SW-620 colon = tested on: SW-620 colon
OVCAR-5 ovarian = tested on: OVCAR-5 ovarian
SN12K1 renal = tested on: SN12K1 renal
SF-295 CNS = tested on: SF-295 CNS
MALME-3M melanoma = tested on: MALME-3M melanoma
SK-MEL-2 melanoma = tested on: SK-MEL-2 melanoma
SK-MEL-5 melanoma = tested on: SK-MEL-5 melanoma
OVCAR-8 ovarian = tested on: OVCAR-8 ovarian
P388/ADR leukemia = tested on: P388/ADR leukemia
NCI-H522 lung = tested on: NCI-H522 lung
UACC-62 melanoma = tested on: UACC-62 melanoma
HOP-62 NSCLC = tested on: HOP-62 NSCLC
P388 leukemia = tested on: P388 leukemia
COLO 205 colon = tested on: COLO 205 colon
HCT-116 colon = tested on: HCT-116 colon

Structure (SMILES): O=C(NC(Cc1ccc(I)cc1)C(=O)O)c1cccc(Br)c1 (stereo not given)
- TGI (LOX IMVI melanoma): > 100 µM
- TGI (CCRF-CEM leukemia): > 100 µM
- TGI (NCI-H460 lung): > 100 µM
- TGI (DMS 273 small cell lung): > 100 µM
- TGI (M19-MEL melanoma): > 100 µM
- TGI (SN12C renal): > 100 µM
- TGI (U251 CNS): > 100 µM
- TGI (HOP-92 NSCLC): > 100 µM
- TGI (DMS 114 small cell lung): > 100 µM
- TGI (K-562 leukemia): > 100 µM
- TGI (UO-31 renal): > 100 µM
- TGI (NCI-H23 lung): > 100 µM
- TGI (HCT-15 colon): > 100 µM
- TGI (SNB-19 CNS): > 100 µM
- TGI (SK-OV-3 ovarian): > 100 µM
- TGI (SF-539 CNS): > 100 µM
- TGI (HOP-18 NSCLC): > 100 µM
- TGI (UACC-257 melanoma): > 100 µM
- TGI (SNB-78 CNS): > 100 µM
- TGI (A498 renal): > 100 µM
- TGI (NCI/ADR-RES ovarian): > 100 µM
- TGI (KM20L2 colon): > 100 µM
- TGI (IGROV1 ovarian): > 100 µM
- TGI (MOLT-4 leukemia): > 100 µM
- TGI (A549 NSCLC): > 100 µM
- TGI (SNB-75 CNS): > 100 µM
- TGI (HCC-2998 colon): > 93.1 µM
- TGI (HL-60(TB) leukemia): > 100 µM
- TGI (DLD-1 colon): > 100 µM
- TGI (SF-268 CNS): > 100 µM
- TGI (OVCAR-4 ovarian): > 100 µM
- TGI (OVCAR-3 ovarian): > 100 µM
- TGI (SK-MEL-28 melanoma): > 100 µM
- TGI (NCI-H226 lung): > 100 µM
- TGI (EKVX NSCLC): > 100 µM
- TGI (HT29 colon): > 100 µM
- TGI (KM12 colon): > 100 µM
- TGI (MCF7 breast): > 100 µM
- TGI (RPMI-8226 leukemia): > 100 µM
- TGI (CAKI-1 renal): > 100 µM
- TGI (SW-620 colon): > 100 µM
- TGI (OVCAR-5 ovarian): > 100 µM
- TGI (SN12K1 renal): > 100 µM
- TGI (SF-295 CNS): > 100 µM
- TGI (MALME-3M melanoma): > 100 µM
- TGI (SK-MEL-2 melanoma): > 100 µM
- TGI (SK-MEL-5 melanoma): > 100 µM
- TGI (OVCAR-8 ovarian): > 100 µM
- TGI (P388/ADR leukemia): > 100 µM
- TGI (NCI-H522 lung): > 100 µM
- TGI (UACC-62 melanoma): > 100 µM
- TGI (HOP-62 NSCLC): > 100 µM
- TGI (P388 leukemia): > 100 µM
- TGI (COLO 205 colon): > 100 µM
- TGI (HCT-116 colon): > 100 µM
